According to US11738099B2, “Molecular probes and methods of use” (CASE WESTERN RESERVE UNIVERSITY, priority 2014, dated 2023):
Where a SMILES comes first, the peptide text is derived from it. The star is where a group is joined. X1 = O=C(O)CN1CCN(CC(=O)O)CCN(CC(O)Cn2cc(CCCC(=O)*)nn2)CCN(CC(=O)O)CC1; PEG2 = NCCOCCOCCC(=O)O

Experiments:
4T1 metastatic tumors = experiment: MRI of breast cancer metastatic tumor model; assay type: in vivo, mouse
Experimental: In order to construct a metastatic tumor model, 0.2×10^6 4T1 tumor cells undergone 5 days of TGFβ induction were injected through left ventricle of heart, resulting in the spread of tumor cells primarily in brain, lung, liver, lymph node, adrenal gland, chest, and bone marrow. Bioluminescent images of the mice at two weeks were used to monitor the growth of tumors. To assess the targeting capacity of l-ZD2-Cy5, brain and lung were harvested from the mice three hours after 10 nmol l-ZD2-Cy5 were injected. […] Normal brain and lung harvested from normal mice injected with l-ZD2-Cy5 were used as negative controls. Examination of bigger metastatic tumors in lymph nodes and adrenal gland, as shown in FIG. 8B further backed up the targeting efficiency of l-ZD2-Cy5.
Breast cancer metastatic tumor model was imaged at two weeks in order to validate the properties of l-ZD2-Gd(HP-DO3A) in detecting breast cancer micrometastases. In FIG. 9A, a mouse developed with metastatic tumors in lymph nodes, adrenal glands, and chest was imaged in MRI after l-ZD2-Gd(HP-DO3A) injection, in conjugation with BLI validation of tumor positions.

[1] = system: PC-3 human prostate cancer xenograft; experiment: MRI of PC-3 xenograft (Example 2); assay type: in vivo, mouse; settings: 0.1 mmol-Gd/kg intravenous
Description: The same contrast agent also works for prostate cancer imaging. We then tested the effectiveness of targeting EDB-FN with the contrast agent for prostate cancer MRI in male nude mice bearing primary PC-3 human prostate cancer xenograft.

[2] = Relaxivity measurement at 7T in PBS; assay type: physicochemical
Experimental: To accurately capture T1 maps, a fast T1 mapping method was developed. This accelerated multi-slice T1-mapping method combines a saturation recovery look-locker sequence and spiral k-space sampling^40. The NMR tubes filled with 3.12-50 μM ZD2-Gd(HP-DO3A) were positioned in a mouse coil and scanned with T1-weighted spin echo sequence, cartesian T1-mapping sequence, and spiral T1-mapping sequence. Axial images were acquired. CNR values from the T1-weighted sequence were calculated from signal from the samples subtracting surrounding water signal, and divided by noise. T1 values of the samples were reconstructed by fitting signal change during the acquisition time to the adapted T1-relaxation curve.

[3] = In vitro complexation stability in PBS with Cu2+, Ca2+, Zn2+; assay type: physicochemical
Experimental: FIGS. 16(A-B) illustrate in vitro complexation stability and transmetallation analysis of ZD2-Gd(HP-DO3A). A) relative Gd content of ZD2-Gd(HP-DO3A) assayed during 200-min incubation of the agent in phosphate buffer saline (PBS) with and without Cu^2+, Ca^2+, or Zn^2+ ions. […] B) In vitro transmetallation analysis of MultiHance, OmniScan, ProHance (abbreviated as Pro.), and ZD2-Gd(HP-DO3A) (abbreviated as ZD2) in mouse senim.

[4] = system: PC3 prostate tumor xenografts; experiment: In vivo T1-weighted MRI at 7T, PC3 tumors; set-up: species or system mouse
Experimental: All MRI experiments were performed on a horizontal 7T Bruker scanner (Bruker Biospin Co., Billerica, Mass.). Imaging experiments were performed when the tumor size reached 5-8 mm in diameter. ZD2-Gd(HP-DO3A) was administered intravenously at the dose of 0.1 mmol/kg after acquiring pre-contrast images. Post-contrast images were obtained at 10 min interval up to 30 min. The axial slices of mouse at the tumor location were acquired using T1-weighted spin echo sequence with the following parameters: field of view (FOV): 3 cm; slice thickness: 1.2 mm; interslice distance: 1.2 mm; TR: 500 ms, TE: 8.1 ms; flip angle: 90°; average: 2; matrix size: 128×128. Contrast-to-noise ratio (CNR) at each time point was calculated by subtraction of the average signal intensity in the tumor and muscle, divided by the standard deviation of image noise. ProHance® (gadoteridol) was used as a control in the imaging experiments.

[5] = In vivo transmetallation and urinary excretion; set-up: species or system mouse; settings: 0.1 mmol-Gd/kg
Experimental: Balb/c mice (Charles River Laboratories, Wilmington, Mass., USA) were randomly divided into groups of ZD2-Gd(HP-DO3A) and ProHance (n=5) and placed in the metabolism cages, 48 hours prior to injection. […] Urine samples were collected at 12 h pre-injection, and then 8, 24, 48, and 72 h post-injection from the metabolic box. The collected urine samples were centrifuged at 4,000 rpm for 15 min. The concentration of Gd(III), Zn(II), Cu(H), and Ca(II) in the supernatant of the urine samples was determined by ICP-OES after appropriate dilutions.

[6] = mouse, in vivo
Experimental: PC3 tumor-bearing athymic nude mice (sixteen mice) were randomly divided into 4 groups (four mice each group). […] The animals were sacrificed at 2 and 7 days after injection. The blood and tissue samples, including brain, femur, heart, lung, liver, muscle, spleen, and kidney, were collected and weighed. The tissue samples were then cut into small pieces and mixed with ultra-pure nitric acid (1.0 mL, 70%, EMD, Gibbstown, N.J.). The tissue samples were liquefied within 2 weeks and the solution was transferred to a centrifuge tube and centrifuged at 14,000 rpm for 15 min. The supernatant (0.2 mL) was diluted with 9.8 mL deionized water and further centrifuged at 14,000 rpm for 15 min. The Gd(III) concentration in the final supernatant was measured by ICP-OES. […] The Gd content in different organ/tissues was calculated as the percentage of injected dose per gram of organ/tissues (% Dose/g).

CC(C)[C@H](NC(=O)[C@@H](NC(=O)CCOCCOCCNC(=O)CCCc1cn(CC(O)CN2CCN(CC(=O)O)CCN(CC(=O)O)CCN(CC(=O)O)CC2)nn1)[C@@H](C)O)C(=O)N[C@@H](CCCNC(=N)N)C(=O)N[C@H](C(=O)N[C@@H](CO)C(=O)N[C@@H](C)C(=O)N[C@@H](CC(=O)O)C(=O)O)[C@@H](C)O (stereo partly shown) [ZD2-Gd(HP-DO3A)] ({X1-PEG2}-TVRTSAD-OH)
tumor enhancement in MRI (4T1 metastatic tumors; metastatic tumors at two weeks): All five tumors indicated in BLI showed enhancement in MRI
signal enhancement in tumor by CNR measurement (4T1 metastatic tumors; tumor vs liver, kidney, bladder, muscle): significant higher signal enhancement
tumor contrast enhancement [1]: robust tumor enhancement for at least 30 min
T1 relaxivity [2]: 3.7 mM⁻¹ s⁻¹
relative Gd content ([3]; 200-min incubation in PBS with and without Cu2+, Ca2+, or Zn2+): No decrease in Gd content
transmetallation with endogenous metal ions ([3]; 24 hours of incubation with Cu2+, Ca2+, Zn2+ in PBS (pH=7.4)): no evident transmetallation
signal enhancement in PC3 tumors ([4]; 0.1 mmol/kg i.v., up to 30 min, 7T): Strong signal enhancement
signal enhancement and CNR in PC3 tumors with co-injection of free ZD2 peptide ([4]; 0.1 mmol/kg with 0.5 mmol/kg free ZD2 peptide): significantly reduced
CNR in PC3 tumors ([4]; 10-30 min post-injection): 12-25
increase of CNR in PC3 tumors ([4]; 10 min after injection): over two-fold increase
increase of CNR in PC3 tumors ([4]; 30 min): over five-fold increase
CNR in PC3 tumors ([4]; 30 min (peak), n=5, SEM): 23.7±1.68
contrast enhancement in other organs and normal tissues ([4]; mouse, in vivo): did not produce significant contrast enhancement
urine concentration of endogenous metal ions post-injection vs pre-injection [5]: without any significant increase
dose excreted ([5]; mouse, in vivo, iv, within 24 hours post-injection, read-out: injected dose excreted in urine): > 95%
Gd(III) concentration in most of the organs, including the brain, heart, and skin [6]: below the detection limit
